# Source: patent US20180117011A1, “ENZALUTAMIDE IN COMBINATION WITH AFURESERTIB FOR THE TREATMENT OF CANCER” (Novartis AG, priority 2013, published 2018)
# Key:
# Type in all cases: cell-based
# VCaP cells = experiment: Luminescent caspase 3/7 assay in VCaP cells; settings: 5 days, FIG. 3B
# Procedure: (§1) Tumor cells were seeded in 96-well white tissue culture plates in 100 μL growth media (media with 10% FBS) or CSS media (media with 10% charcoal stripped fetal bovine serum). LNCaP cells were seeded at a density of 1,000 cells per well, whereas, VCaP cells were seeded at 7,500 cells per well. Approximately 24 hr after plating, duplicate or triplicate plates of cells were treated with indicated compounds for both luminescent caspase-3/7 and CTG readings. At the end of the 5 days of incubations, half of the plates were lysed and caspase-3/7 activity was measured using the Caspase-Glo® 3/7 Assay (Promega) according to the manufacturer's protocol. Briefly, Caspase-Glo reagent was added to each plate, incubated for at least 45 minutes, and luminescent signal was read on the EnVision Multilabel Plate Reader with a 0.1 sec integration time. The remaining plates were lysed and ATP levels were measured using the CTG assay. The caspase-3/7 signal was normalized to the ATP signal. The normalized values were expressed as a percentage of the control wells.
# LNCaP cells [1] = experiment: Cell proliferation assay (CellTiter-Glo, total cellular ATP); settings: charcoal-stripped serum, 0.1 nM R1881, 7 days; FIG. 1
# Procedure: Androgen-dependent prostate cancer cell line, LNCaP, were grown in RPMI 1640 culture medium supplemented with 10% charcoal-stripped fetal bovine serum for 24 hours in 96-well tissue culture plates at a density of 1,000 cells per well. Cells were treated with various concentrations of compounds A or B alone and in combination in presence of synthetic androgen (R1881, Sigma-Aldrich, St. Louis, Mo.). After 7 days, total cellular ATP was measured using the CellTiter-Glo Luminescent Cell Viability Assay (Promega, Madison, Wis.) on an EnVision plate reader. Background counts from wells containing no cells were subtracted and the data is presented as a percentage of the DMSO-treated control cells.
# LNCaP cells [2] = experiment: Luminescent caspase 3/7 assay in LNCaP cells; settings: five days, FIG. 3A
# Procedure: as §1
# [3] = test system: cell signaling in LNCaP cells; experiment: Effect on cell signaling (immunoblot assay); settings: 0.1 nM R1881, 6 hour, FIG. 2
# Procedure: LNCaP cells were grown in RPMI 1640 culture medium supplemented with 10% charcoal-stripped fetal bovine serum for 48 hours in 6-well tissue culture plates at a density of 500,000 cells per well. Cells were treated with the indicated compounds for six hours, washed with PBS, and whole cell lysates were prepared in RIPA buffer (Teknova, Hollister, Calif.). Cell lysates were clarified by centrifugation at 20,000 relative centrifugal force, 4° C., and protein was quantified using the BCA Protein Assay Kit (Pierce, Rockford, Ill.). Equal amounts of protein lysates were separated by SDS-PAGE using a 4-12% Bis-Tris polyacrylamide gel (Life Technologies) and transferred to a nitrocellulose membrane and incubated with antibodies against total and phospho-AKT, phospho-PRAS40, total and phospho-S6, androgen receptor, and FKBP5. Following incubation with primary antibody, blots were washed and incubated with IRDye-800 anti-mouse or IRDye-680 anti-rabbit antibodies for 1 h. Following thorough washing, blots were analyzed using an infrared imaging system (LI-COR).
Compound,"caspase 3/7 activity induction in VCaP cells, CSS media (VCaP cells; Compound A 10 uM, CSS media) [fold]","caspase 3/7 activity induction in VCaP cells, growth media (VCaP cells; Compound A 10 uM, growth media) [fold]",LNCaP cell growth (anti-proliferative effect) (LNCaP cells [1]),"caspase 3/7 activity induction in LNCaP cells (LNCaP cells [2]; Compound A 10 uM, Compound B 1 uM, or both, medium not specified)","caspase 3/7 activity induction in LNCaP cells, media containing charcoal stripped serum (LNCaP cells [2]; CSS media)","caspase 3/7 activity induction in LNCaP cells, growth media (LNCaP cells [2]; growth media (10% FBS))","caspase 3/7 activity induction in VCaP cells, media containing charcoal stripped serum (in words) (VCaP cells; Compound B 1 uM, CSS media)","caspase 3/7 activity induction in VCaP cells, growth media (in words) (VCaP cells; Compound B 1 uM, growth media)",phospho-AKT (T308) ([3]; Compound B 100 or 300 nM alone or with compound A 3 uM),androgen receptor level ([3]; Compound B 100 or 300 nM),androgen receptor target gene (FKBP5) expression ([3]; Compound B 100 or 300 nM),phospho-PRAS40 (AKT downstream substrate) ([3]; Compound B 100 or 300 nM),phospho-S6 (AKT downstream substrate) ([3]; Compound B 100 or 300 nM)
"CNC(=O)c1ccc(N2C(=S)N(c3ccc(C#N)c(C(F)(F)F)c3)C(=O)C2(C)C)cc1F [Compound A, 4-(3-(4-Cyano-3-(trifluoromethyl)phenyl)-5,5-dimethyl-4-oxo-2-thioxoimidazolidin-1-yl)-2-fluoro-N-methylbenzamide, reference compound]",11,2,inhibited,no induction,strong induction,strong induction,,,,,,,
"Cn1ncc(Cl)c1-c1cc(C(=O)N[C@H](CN)Cc2cccc(F)c2)sc1Cl [Compound B, N-{(1S)-2-amino-1-[(3-fluorophenyl)methyl]ethyl}-5-chloro-4-(4-chloro-1-methyl-1H-pyrazol-5-yl)-2-thiophenecarboxamide]",,,inhibited,,,,not,strong induction,increased,no significant effect,no significant effect,inhibited,inhibited
